# From patent US8394786B2, “Quinazoline derivatives” (Janssen Pharmaceutica N.V., priority 2003, dated 2013)
# How the values were obtained:
# A431 cells = assay: Proliferation assay on the squamous carcinoma cell line A431 cells (C5); type: cell-based; conditions: Homo sapiens, A-431; 72 hours with compounds; MTT cell viability assay; read-out: A431 cell (C5): pIC50 (converted)
# Experimental: The squamous carcinoma cell line (A431) was used in a cell proliferation assay, to assess the inhibitory effect of the compounds in whole cells.
# In a first step the A431 cells were incubated for 24 hours in the presence of 10% FCS serum. In the second step the cells were incubated for 72 hours with the compounds to be tested at a final concentration of 100 ng/ml. The effect of the compounds on the cell proliferation was finally assessed in a standard MTT cell viability assay.
# SKOV3 cells = assay: Serum starved proliferation assay on the ovarian carcinoma SKOV3 cells (C3); type: cell-based; conditions: Homo sapiens, SK-OV-3, 72 h, EGF stimulated (100 ng/ml, 72 hours, serum free) or 72 hours with compounds; MTT cell viability assay; read-out: SKOV3 cell (C3): pIC50 (converted)
# Outline: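 MTT viability read-out in SKOV3 cells after a 24 h pre-incubation in 10% FCS, in one of two formats. EGF-stimulated version: serum-free compound exposure followed by 100 ng/ml EGF (final) for 72 h at 37 °C, 5% CO2. Otherwise, compound alone for 72 h.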
# EGFR [1] = target: T1, EGFR (Homo sapiens, UniProt P00533); assay: In vitro inhibition of EGFR, Flash Plate or glass-fiber filter technology (C2); type: biochemical; set-up: 0.5 μg EGFR-kinase domain/well; conditions: EGFR-kinase domain, 5.0 μM unlabeled ATP, read-out: Kinase activity.(C2): pIC50 (converted)
# Outline: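 Two radiometric formats were used, each with 5.0 μM unlabeled ATP, [33P]ATP, 0.5 μg EGFR kinase domain and compounds from 1·10^−10 to 1·10^−6 M. Glass-fiber filter: 25° C for 10 min, pH 7.5, Mn2+/Mg2+, acid-stopped, phosphorimager read. Streptavidin Flash Plate: biotinylated poly(GT), pH 8.0, 30° C for 60 min.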
# Target sequence in this assay (P00533 712-979 limits assumed): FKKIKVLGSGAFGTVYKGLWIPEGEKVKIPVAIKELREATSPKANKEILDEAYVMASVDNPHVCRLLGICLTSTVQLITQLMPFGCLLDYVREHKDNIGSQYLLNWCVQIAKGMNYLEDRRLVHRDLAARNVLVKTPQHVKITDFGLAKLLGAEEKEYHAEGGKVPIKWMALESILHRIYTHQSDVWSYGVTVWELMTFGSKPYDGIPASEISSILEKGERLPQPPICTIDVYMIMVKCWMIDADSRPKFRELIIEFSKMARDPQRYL
# EGFR [2] = target: T1, EGFR; assay: ELISA assay of EGFR tyrosine kinase activity (C4); type: biochemical; conditions: poly(Glu, Tyr) coated plate, 5 μM ATP, room temperature 10 min
# Experimental: The EGFR ELISA is generally described by Yang, E. B. et al., 2001, Biochimica et Biophysica Acta, 1550; 144.
# For the determination of EGFR tyrosine kinase activity, 100 μl of 0.4 μg/ml poly(Glu, Tyr) in PBS was coated per well on a 96-well microplate at 37° C. overnight. […] After washing three times with PBS the plates were either used immediately or stored at 4° C. Prior to the determination of the EGFR tyrosine kinase activity, the coated plates were washed two times with PBS. Next, to each well 88 μl of an ATP dilution (50 mM Tris HCl pH 8.0, 10 mM MgCl2, 100 μM Na3VO4, 1 mM DTT, 5 μM ATP) and 2 μl with various concentrations of the compounds to be tested, were added. The EGFR tyrosine kinase-catalysed reaction was started by the addition of 10 μl of diluted EGFR (dilution→0.05 μg per well enzyme diluted in 50 mM TrisHCl pH 8.0+0.1% BSA). After incubation at room temperature for 10 min, the reaction was stopped by washing five times with PBS with 0.1% Tween 20. Subsequently […] of recombinant anti-phosphotyrosine horseradish peroxidase conjugate (1:2500) in BSA (10 mg/ml in PBS) was added. After incubation at room temperature for 1 h, the microplate was washed five times with PBS/Tween 20. After the microplate was incubated with 100 μl of TMB-ELISA (1-step Ultra TMB-ELISA, Pierce) until colour development, 100 μl of 0.5 M H2SO4 was added to stop the reaction, and it was read in a microplate reader at 450-655 nm.
# Target sequence in this assay (P00533 25-1210): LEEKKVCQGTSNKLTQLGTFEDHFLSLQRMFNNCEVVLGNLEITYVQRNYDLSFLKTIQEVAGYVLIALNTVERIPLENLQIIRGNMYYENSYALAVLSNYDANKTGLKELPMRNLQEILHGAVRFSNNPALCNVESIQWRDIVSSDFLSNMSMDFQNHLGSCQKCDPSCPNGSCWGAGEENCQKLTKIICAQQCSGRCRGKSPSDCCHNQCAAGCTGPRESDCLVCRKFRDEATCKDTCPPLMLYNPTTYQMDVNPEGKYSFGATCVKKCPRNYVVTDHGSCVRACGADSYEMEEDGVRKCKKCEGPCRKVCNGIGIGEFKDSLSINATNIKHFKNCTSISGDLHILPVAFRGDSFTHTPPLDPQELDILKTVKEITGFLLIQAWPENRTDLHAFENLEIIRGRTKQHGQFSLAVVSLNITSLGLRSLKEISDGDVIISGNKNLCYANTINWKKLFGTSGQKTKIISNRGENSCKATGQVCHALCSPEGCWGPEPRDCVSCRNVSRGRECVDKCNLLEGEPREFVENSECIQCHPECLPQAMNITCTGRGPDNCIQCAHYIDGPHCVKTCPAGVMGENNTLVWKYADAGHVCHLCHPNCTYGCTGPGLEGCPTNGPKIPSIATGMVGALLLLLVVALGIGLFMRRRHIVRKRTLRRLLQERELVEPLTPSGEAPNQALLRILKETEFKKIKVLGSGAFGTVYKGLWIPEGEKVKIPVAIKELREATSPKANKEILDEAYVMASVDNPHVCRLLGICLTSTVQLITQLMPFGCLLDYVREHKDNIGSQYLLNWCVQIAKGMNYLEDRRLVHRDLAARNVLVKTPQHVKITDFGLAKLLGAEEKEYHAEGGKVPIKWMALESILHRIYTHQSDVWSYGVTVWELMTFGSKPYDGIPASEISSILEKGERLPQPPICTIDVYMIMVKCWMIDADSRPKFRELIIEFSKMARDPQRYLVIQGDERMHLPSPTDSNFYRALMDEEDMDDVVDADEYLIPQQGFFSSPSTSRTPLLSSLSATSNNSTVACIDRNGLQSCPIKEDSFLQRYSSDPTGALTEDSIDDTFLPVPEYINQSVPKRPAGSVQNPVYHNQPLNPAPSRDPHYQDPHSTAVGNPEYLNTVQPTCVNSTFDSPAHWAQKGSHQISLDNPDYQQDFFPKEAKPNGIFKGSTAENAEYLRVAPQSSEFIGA
Structure (SMILES),IC50 (A431 cells),IC50 (SKOV3 cells),melting point,IC50 (EGFR [1]),IC50 (EGFR [2])
"COc1cc2ncnc3c2cc1OCCCCCCCCON=Cc1ccc(Cl)cc1N3 [Compound 24, 4,6-ethanediylidene-23H-pyrimido[4,5-b][6,15,1,16]benzo-dioxadiazacyclononadecine, 21-chloro-8,9,10,11,12,13,14,15-octahydro-24-methoxy-]",> 3.16 µM,3.16 µM,127.2 to 132.2 °C,20 nM,–
"Oc1cc2ncnc3c2cc1OCCCCCCOc1ccc(Br)cc1N3 [Compound 16, 4,6-ethanediylidene-19H-pyrimido[4,5-b][6,13,1]benzodioxaazacyclo-pentadecin-20-ol, 17-bromo-8,9,10,11,12,13-hexahydro-]",–,–,–,2510 nM,> 1000 nM
"COc1cc2ncnc3c2cc1OCCCCCCOc1ccc(C(=O)N2CCCC2)cc1N3 [Compound 12, pyrrolidine, 1-[(8,9,10,11,12,13-hexahydro-20-methoxy-4,6-ethane-diylidene-19H-pyrimido[4,5-b][6,13,1]benzodioxaazacyclopentadecin-17-yl)carbonyl]-]",> 3.16 µM,> 10 µM,–,> 10000 nM,> 1000 nM
"COc1cc2ncnc3c2cc1OCCCCCCCc1ccc(Br)cc1N3 [Compound 21, 4,6-ethanediylidenepyrimido[4,5-b][6,1]benzoxaazacyclopentadecine, 17-bromo-8,9,10,11,12,13,14,19-octahydro-20-methoxy-]",> 3.16 µM,0.813 µM,–,10 nM,158 nM
"COc1cc2ncnc3c2cc1OCCCCCCOc1ccc(C#N)cc1N3 [Compound 13, 4,6-ethanediylidene-19H-pyrimido[4,5-b][6,13,1]benzodioxaazacyclo-pentadecine-17-carbonitrile, 8,9,10,11,12,13-hexahydro-20-methoxy-]",> 3.16 µM,> 10 µM,–,316 nM,> 1000 nM
"COc1cc2ncnc3c2cc1OCCCCCCNC(=O)c1ccc(Cl)cc1N3 [Compound 36, 4,6-ethanediylidene-8H-pyrimido[4,5-b][6,1,13]benzoxadiazacyclohexadecin-15(20H)-one, 18-chloro-9,10,11,12,13,14-hexahydro-21-methoxy-]",> 3.16 µM,0.166 µM,–,15.8 nM,–
"COc1cc2ncnc3c2cc1OCCCCCCOc1ccc(-c2ccccc2)cc1N3 [Compound 34, 4,6-ethanediylidene-19H-pyrimido[4,5-b][6,13,1]benzodioxaazacyclopentadecine, 8,9,10,11,12,13-hexahydro-20-methoxy-17-phenyl-]",> 3.16 µM,> 10 µM,–,63.1 nM,–
"COc1cc2ncnc3c2cc1OCCCCCNCc1ccc(Br)cc1N3 [Compound 20, 4,6-ethanediylidenepyrimido[4,5-b][6,1,12]benzoxadiazacyclo-pentadecine, 17-bromo-8,9,10,11,12,13,14,19-octahydro-20-methoxy-]",1.26 µM,0.229 µM,–,25.1 nM,–
"COc1cc2ncnc3c2cc1OCCCCCN(C)Cc1ccc(Br)cc1N3 [Compound 22, 4,6-ethanediylidenepyrimido[4,5-b][6,1,12]benzoxadiazacyclo-pentadecine, 17-bromo-8,9,10,11,12,13,14,19-octahydro-20-methoxy-13-methyl-]",1.58 µM,0.257 µM,–,15.8 nM,38.4 nM
"COc1cc2ncnc3c2cc1OCCCCCCOc1ccc(C(=O)N2CCOCC2)cc1N3 [Compound 14, morpholine, 4-[(8,9,10,11,12,13-hexahydro-20-methoxy-4,6-ethane-diylidene-19H-pyrimido[4,5-b][6,13,1]benzodioxaazacyclopentadecin-17-yl)carbonyl]-]",> 3.16 µM,> 10 µM,–,> 10000 nM,> 1000 nM
"COc1cc2ncnc3c2cc1OCCCCCCOc1ccc(C(=O)O)cc1N3 [Compound 11, 4,6-ethanediylidene-19H-pyrimido[4,5-b][6,13,1]benzodioxaazacyclo-pentadecine-17-carboxylic acid, 8,9,10,11,12,13-hexahydro-20-methoxy-]",> 3.16 µM,> 10 µM,–,> 10000 nM,> 1000 nM
"COc1cc2ncnc3c2cc1OCCCCCN(C(=O)OC(C)(C)C)Cc1cc(F)c(Cl)cc1N3 [Compound 29, 4,6-ethanediylidenepyrimido[4,5-b][6,1,12]benzoxadiazacyclopentadecine-13(8H)-carboxylic acid, 17-chloro-16-fluoro-9,10,11,12,14,19-hexahydro-20-methoxy-, 1,1-dimethylethyl ester]",> 3.16 µM,> 10 µM,–,794 nM,–
"COC(=O)c1ccc2c(c1)Nc1ncnc3cc(OC)c(cc13)OCCCCCCO2 [Compound 10, 4,6-ethanediylidene-19H-pyrimido[4,5-b][6,13,1]benzodioxaazacyclo-pentadecine-17-carboxylic acid, 8,9,10,11,12,13-hexahydro-20-methoxy-, methyl ester]",> 3.16 µM,> 10 µM,–,50.1 nM,> 1000 nM
"COc1cc2ncnc3c2cc1OCCCNC(=O)CCc1ccc(Cl)cc1N3 [Compound 26, 4,6-ethenopyrimido[4,5-b][6,1,10]benzoxadiazacyclopentadecin-12(13H)-one, 17-chloro-8,9,10,11,14,19-hexahydro-20-methoxy-]",2 µM,0.12 µM,–,2.51 nM,–
"Brc1ccc2c(c1)Nc1ncnc3cc(OCCCN4CCOCC4)c(cc13)OCCCCCCO2 [Compound 17, 4,6-ethanediylidene-19H-pyrimido[4,5-b][6,13,1]benzodioxaazacyclo-pentadecine, 17-bromo-8,9,10,11,12,13-hexahydro-20-[3-(4-morpholinyl)propoxy]-acetic acid]",2.51 µM,8.32 µM,–,39.8 nM,269 nM
"Brc1ccc2c(c1)Nc1ncnc3ccc(cc13)OCCCCCCO2 [Compound 18, 4,6-ethanediylidene-19H-pyrimido[4,5-b][6,13,1]benzodioxaazacyclo-pentadecine, 17-bromo-8,9,10,11,12,13-hexahydro-]",–,> 10 µM,–,79.4 nM,> 1000 nM
"COc1cc2ncnc3c2cc1OCCCCCNCc1cc(F)c(Cl)cc1N3 [Compound 30, 4,6-ethanediylidenepyrimido[4,5-b][6,1,12]benzoxadiazacyclopentadecine, 17-chloro-16-fluoro-8,9,10,11,12,13,14,19-octahydro-20-methoxy-]",> 1 µM,1.02 µM,–,31.6 nM,–
"COc1cc2ncnc3c2cc1OCCCCCCCCOc1cccc(c1)N3 [Compound 25, 22H-4,6-ethanediylidene-21,17-methenopyrimido[5,4-d][1,12,6]dioxaazacycloeicosine, 8,9,10,11,12,13,14,15-octahydro-24-methoxy-]",> 3.16 µM,> 10 µM,–,631 nM,–
